# Measurements reported in ChEMBL document CHEMBL4261574 (Medchemcomm, 2018).
# Key:
# [1] = Selectivity index, ratio of IC50 for ovine COX-1 to IC50 for recombinant human COX-2
# [2] = target: T1, Prostaglandin G/H synthase 2 (Homo sapiens, UniProt P35354)
# T1 sequence (P35354 whole entry): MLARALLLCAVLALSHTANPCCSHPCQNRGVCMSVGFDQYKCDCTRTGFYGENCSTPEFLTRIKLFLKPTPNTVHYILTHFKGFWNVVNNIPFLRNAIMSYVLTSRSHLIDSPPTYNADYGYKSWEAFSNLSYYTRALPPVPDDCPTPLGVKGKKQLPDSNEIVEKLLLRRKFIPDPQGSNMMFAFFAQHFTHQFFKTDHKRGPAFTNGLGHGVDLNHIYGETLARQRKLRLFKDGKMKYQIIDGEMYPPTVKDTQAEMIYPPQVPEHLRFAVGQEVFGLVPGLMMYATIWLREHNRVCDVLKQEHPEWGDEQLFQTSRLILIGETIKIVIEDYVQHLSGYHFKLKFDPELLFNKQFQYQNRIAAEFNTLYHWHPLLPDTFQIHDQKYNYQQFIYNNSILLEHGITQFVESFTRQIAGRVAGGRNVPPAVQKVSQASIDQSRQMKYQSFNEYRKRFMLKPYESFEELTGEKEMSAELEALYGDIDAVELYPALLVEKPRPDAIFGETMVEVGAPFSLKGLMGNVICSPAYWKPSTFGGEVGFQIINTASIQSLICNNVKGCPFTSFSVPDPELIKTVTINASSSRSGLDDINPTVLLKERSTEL
# [3] = target: T2, Prostaglandin G/H synthase 1 (Ovis aries, UniProt P05979); test: Inhibition of ovine COX-1 assessed as reduction of prostaglandin-G2 to prostaglandin-H2 by measuring oxidation of 10-acetyl-3,7-dihydroxyphenoxazine to resorufin after 5 mins by fluorescence based assay
# T2 sequence (P05979 whole entry): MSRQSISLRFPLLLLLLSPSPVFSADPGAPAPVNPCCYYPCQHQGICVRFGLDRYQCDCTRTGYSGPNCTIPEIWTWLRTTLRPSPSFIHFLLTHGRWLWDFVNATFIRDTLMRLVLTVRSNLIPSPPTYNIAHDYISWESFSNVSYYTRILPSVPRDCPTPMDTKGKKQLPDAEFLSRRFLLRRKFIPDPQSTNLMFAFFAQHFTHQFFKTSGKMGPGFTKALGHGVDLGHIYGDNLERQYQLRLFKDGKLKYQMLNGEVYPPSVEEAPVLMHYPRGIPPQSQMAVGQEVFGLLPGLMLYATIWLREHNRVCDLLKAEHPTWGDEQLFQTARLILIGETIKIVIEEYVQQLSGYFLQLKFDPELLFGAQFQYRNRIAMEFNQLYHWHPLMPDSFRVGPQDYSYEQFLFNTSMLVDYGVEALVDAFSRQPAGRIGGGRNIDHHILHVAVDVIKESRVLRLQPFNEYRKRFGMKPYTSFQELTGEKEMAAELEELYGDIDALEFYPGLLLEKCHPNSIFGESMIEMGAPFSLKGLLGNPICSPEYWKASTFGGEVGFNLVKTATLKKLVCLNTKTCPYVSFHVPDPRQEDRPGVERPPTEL
# [4] = Solubility of compound in normal saline; format: physicochemical
# [5] = Dissociation constant, pKa of compound; format: physicochemical
Compound,Ratio IC50 [1],IC50 [2],IC50 [3],solubility [4],pKa [5]
CS(=O)(=O)c1ccc(-c2conc2-c2ccccc2)cc1,> 400,0.247 µM,> 100 µM,–,–
Cc1onc(-c2ccccc2)c1-c1ccc(S(N)(=O)=O)cc1 [VALDECOXIB],–,–,–,10 mM,9.8
NS(=O)(=O)c1ccc(-c2cc(-c3ccccc3)no2)cc1,> 9.3,10.8 µM,> 100 µM,–,–
C[Si](C)(C)c1onc(-c2ccccc2)c1-c1ccc(S(C)(=O)=O)cc1,23.9,4.17 µM,> 100 µM,–,–
CCC(=O)NS(=O)(=O)c1ccc(-c2c(-c3ccccc3)noc2C)cc1 [PARECOXIB],–,–,–,> 50 mg/mL,–
NS(=O)(=O)c1ccc(-c2conc2-c2ccccc2)cc1,> 2100,0.048 µM,> 100 µM,–,–
CS(=O)(=O)c1ccc(-c2c(-c3ccc(F)cc3)noc2C(F)(F)F)cc1,> 12,8.14 µM,> 100 µM,–,–
C[Si](C)(C)c1onc(-c2ccccc2)c1-c1ccc(S(N)(=O)=O)cc1,> 770,0.13 µM,> 100 µM,–,–
CS(=O)(=O)c1ccc(-c2conc2-c2ccc(F)cc2)cc1,> 1800,0.057 µM,> 100 µM,–,–
CS(=O)(=O)c1ccc(-c2c(-c3ccc(F)cc3)noc2C(=O)c2ccccc2)cc1,–,> 100 µM,> 100 µM,–,–
CS(=O)(=O)c1ccc(-c2cc(-c3ccc(F)cc3)no2)cc1,–,> 100 µM,> 100 µM,–,–
C[Si](C)(C)c1c(-c2ccccc2)noc1-c1ccc(S(N)(=O)=O)cc1,> 9,11.1 µM,> 100 µM,–,–
CS(=O)(=O)c1ccc(-c2c(-c3ccc(F)cc3)noc2C=O)cc1,> 7,13.8 µM,> 100 µM,–,–
C[Si](C)(C)c1c(-c2ccc(F)cc2)noc1-c1ccc(S(N)(=O)=O)cc1,> 2.6,38.2 µM,> 100 µM,–,–
C[Si](C)(C)c1c(-c2ccccc2)noc1-c1ccc(S(C)(=O)=O)cc1,–,> 100 µM,> 100 µM,–,–
COC(=O)c1onc(-c2ccc(F)cc2)c1-c1ccc(S(C)(=O)=O)cc1,–,> 100 µM,> 100 µM,–,–
NS(=O)(=O)c1ccc(-c2conc2-c2ccc(F)cc2)cc1,> 2400,0.042 µM,> 100 µM,–,–
C[Si](C)(C)c1c(-c2ccc(F)cc2)noc1-c1ccc(S(C)(=O)=O)cc1,–,> 100 µM,> 100 µM,–,–
CS(=O)(=O)c1ccc(-c2cc(-c3ccccc3)no2)cc1,> 7.4,13.5 µM,> 100 µM,–,–
C[Si](C)(C)c1onc(-c2ccc(F)cc2)c1-c1ccc(S(N)(=O)=O)cc1,> 110,0.93 µM,> 100 µM,–,–
Cc1onc(-c2ccc(F)cc2)c1-c1ccc(S(N)(=O)=O)cc1,> 1400,0.073 µM,> 100 µM,–,–
CS(=O)(=O)c1ccc(-c2c(-c3ccc(F)cc3)noc2Cl)cc1,28.7,0.351 µM,10.1 µM,–,–
CC(=O)c1onc(-c2ccc(F)cc2)c1-c1ccc(S(C)(=O)=O)cc1,–,> 100 µM,> 100 µM,–,–
NS(=O)(=O)c1ccc(-c2cc(-c3ccc(F)cc3)no2)cc1,> 1.2,81.2 µM,> 100 µM,–,–
C[Si](C)(C)c1onc(-c2ccc(F)cc2)c1-c1ccc(S(C)(=O)=O)cc1,> 54,1.87 µM,> 100 µM,–,–
